Columns and labels:
[1] = USGS estimate; cited from earlier work
[2] = cited from earlier work
[3] = batch mode homogeneous catalytic reductive dechlorination of endosulfan in contaminated water, titanium (III) citrate as bulk electron donor; conditions: after 72 hours of reaction, about 0.010 mM catalyst, 0.32 ppm endosulfan initially, room temperature
Procedure: 40 milliliter (0.04 liter) glass vials (usually filled with about 25 milliliters of reaction solution), fitted with Teflon®-clear silicon sealing cups, were used at room temperature (between about 20° C. and about 25° C.) and atmospheric pressure. Contents of each glass vial (batch reactor) were mixed by securing the glass vial onto an orbital shaker (model TS-600, from MRC, Israel) having automatic (mixing) speed control. Multiple replicates of each glass vial (batch reactor) filled with reaction solution were prepared at the beginning of an experiment.
The glass vial batch mode reaction systems were prepared under oxygen free atmosphere conditions, using an anaerobic chamber (Coy Laboratory Products, MI, USA) containing an oxygen free atmosphere composed of a mixture of nitrogen [N2] gas and hydrogen [H2] gas, having a 95/5 molar or partial pressure ratio.
GC/MS was used for monitoring concentration over time, of endosulfan (as α and β isomers) in the endosulfan contaminated water, during the batch mode homogeneous catalytic reactions.
The extracted organic phase was then transferred to a gas chromatograph vial and analyzed for the presence of the endosulfan (as α and β isomers) contaminant.
The reactions were performed at room temperature (between about 20° C. and about 25° C.) and atmospheric pressure.
A volume of 25 milliliter (0.025 liter) was taken from the appropriate stock solution of water contaminated with endosulfan and added to the empty 40 milliliter glass vial (batch reactor), for providing an initial concentration of 0.32 mg endosulfan per liter contaminated water, or 0.32 ppm endosulfan in the contaminated water. This procedure was repeated, for preparing at least two glass vials (batch reactors) for each experiment.
Reducing conditions were not naturally prevalent in the endosulfan contaminated water in the glass vials (batch reactors) for effectively enabling the phenomena, mechanisms, and processes of the electron transfer mediated (homogeneous) catalytic reductive dehalogenation of the endosulfan contaminant in the contaminated water. Thus, reducing conditions in the endosulfan contaminated water were anthropogenically produced by exposing the endosulfan contaminated water to titanium (III) citrate [Ti(OC(CH2COOH)2COOH] as the bulk electron donor or reducing agent, immediately before exposing the endosulfan contaminated water to the catalytically effective amount of each respective above stated metalloporphyrin complex, or metallocorrin complex, electron transfer mediator (homogeneous catalyst).
The pH of the solution was then adjusted to the desired value (e.g., 9.0) by adding small amounts of NaOH concentrated solution to each glass vial (batch reactor).
Then, an appropriate volume was taken from each respective above stated 2 mM metalloporphyrin complex, or metallocorrin complex, stock solution, and added to each glass vial (batch reactor) containing endosulfan contaminated water and titanium (III) citrate, for providing a concentration of about 0.010 mM metalloporphyrin complex, or metallocorrin complex, electron transfer mediator (homogeneous) catalyst in the endosulfan contaminated water. At this point, the glass vials were sealed, and transferred to the orbital shaker.
The contents, i.e., the endosulfan contaminated water containing the titanium (III) citrate as bulk electron donor or reducing agent and the metalloporphyrin complex, or metallocorrin complex, electron transfer mediator (homogeneous) catalyst, in each glass vial (batch reactor), were continuously mixed by securing each glass vial onto the orbital shaker set at a mixing speed of 150 rpm during the entire extent of time or duration of reaction.
For each metalloporphyrin complex, or metallocorrin complex, GC/MS analytical samples were prepared after 72 hours from each of at least two glass vials containing the endosulfan contaminated water of the batch mode homogeneous catalytic reductive dechlorination reaction.

[4] = partitioning (adsorption and desorption) of electron transfer mediators on/off geological matter; type: physicochemical; conditions: Bet Dagan soil, room temperature; for Adsorption (%) of (ETM) after 10 days: aqueous mixture; for Desorption (%) of (ETM) after 10 days: fresh water replaced
Procedure: Bet Dagan soil was obtained from the site of the Bet Dagan Agricultural Research Organization campus, Bet Dagan, Israel. The Bet Dagan soil was sieved to a size of 60 mesh, and maintained in a dry air environment until use.
(§1) 40 milliliter (ml) (0.04 liter) glass vials (filled with 10 milliliters, of solution), were used at room temperature (between about 20° C. and about 25° C.) and atmospheric pressure, as the vessel or container, for containing the aqueous mixtures of the (partitioning) electron transfer mediator (ETM)—geological matter (soil or clay).
(§2) Ultraviolet and visible (UV/VIS) absorption spectrometry was used for measuring and determining the quantity (concentration), after a time period of 10 days each of (ETM) adsorption and desorption, of each (partitioning) electron transfer mediator (ETM) in the aqueous (liquid) phase of each respective electron transfer mediator (ETM)—geological matter (soil or clay) aqueous mixture. Multiple samples of the aqueous (liquid) phase of each mixture were taken from each respective glass vial (partitioning vessel).
(§3) The UV/VIS absorption spectrometer was a Varian, Cary 100, operative according to double beam analysis. Concentrations of the [TBSP-Ni], hematoporphyrin-Cobalt, and vitamin B12, electron transfer mediators (ETMs), were measured at absorption wavelengths of 527 nanometers (nm), 413 nanometers (nm), and 548 nanometers (nm), respectively.
(§4) The electron transfer mediator (ETM)—geological matter (soil or clay) partitioning experiments were performed at room temperature (between about 20° C. and about 25° C.) and atmospheric pressure.
(§5) Each prepared 2 mM metalloporphyrin complex, or metallocorrin complex, (ETM) aqueous stock solution, was diluted by a ratio of 1/10 or 1/100 with the distilled deionized filtered water, for forming respective diluted (ETM) stock solutions.
(§6) For each diluted (ETM) stock solution, corresponding to each respective electron transfer mediator (ETM), an amount of each type of geological matter, i.e., Bet Dagan soil, kaolinite clay, and montmorillonite clay, was weighed, and added to a separate glass vial (partitioning vessel). (ETM) Control solutions remained absent of any geological matter. […]
(§7) The ‘adsorption mode’ analytical samples were then analyzed by the above described (UV/VIS) absorption spectrometry procedure, for determining the quantity (concentration) of the [TBSP-Ni], hematoporphyrin-Cobalt, and vitamin B12, electron transfer mediator (ETM), present (i.e., remaining) in the aqueous (liquid) phase of each respective electron transfer mediator (ETM)—geological matter (soil or clay) aqueous mixture. […]

[5] = as above; type: physicochemical; conditions: Kaolinite clay, room temperature; for Adsorption (%) of (ETM) after 10 days: aqueous mixture; for Desorption (%) of (ETM) after 10 days: fresh water replaced
Procedure: Kaolinite clay, ‘purum, natural’ grade, was obtained from Fluka.
as §1, §2, §3, §4, §5, §6
as §7, with “mixture. Such analysis and determination corresponded to quantitatively measuring and determining the extent that the respective electron transfer mediator (ETM) left the aqueous (liquid) phase and ‘adsorbed’ onto the respective geological matter (soil or clay) (solid) phase. The (ETM) Control solutions were similarly analyzed.” for “mixture.”

[6] = as above; type: physicochemical; conditions: Montmorillonite clay, room temperature; for Adsorption (%) of (ETM) after 10 days: aqueous mixture; for Desorption (%) of (ETM) after 10 days: fresh water replaced
Procedure: Montmorillonite clay, 10-12% impurities, was obtained from Fluka.
as §1, §2, §3, §4, §5, §6
as §7, with “mixture. Such analysis and determination corresponded to quantitatively measuring and determining the extent that the respective electron transfer mediator (ETM) left the aqueous (liquid) phase and ‘adsorbed’ onto the respective geological matter (soil or clay) (solid) phase. The (ETM) Control solutions were similarly analyzed.” for “mixture.”

| Compound | Normalized Endosulfan Concentration (%) α isomer [3] [%] | Normalized Endosulfan Concentration (%) β isomer [3] [%] | further results |
| --- | --- | --- | --- |
| CCNc1nc(Cl)nc(NC(C)C)n1 [Atrazine, atrazine] | – | – | persistence in deep lakes [1]: exceed 10 years |
| Clc1ccc(C(c2ccc(Cl)cc2)C(Cl)(Cl)Cl)cc1 [DDT, DichloroDiphenylTrichloroethane] | – | – | partition coefficient, Kd, relative to aldicarb ([2]; ratio DDT / aldicarb): roughly 20,000 times; partition coefficient, Kd, relative to atrazine ([2]; ratio DDT / atrazine): ~1,500 times |
| C=Cc1c(C)c2cc3[nH]c(cc4nc(cc5nc(cc1[nH]2)C(C)=C5CCC(=O)[O-])C(CCC(=O)[O-])=C4C)c(C)c3C=C.[Co+2] [Protoporphyrin IX-Co, protoporphyrin IX-Cobalt] | 31.5 | 37.8 | – |
| O=S(=O)(O)c1ccc(-c2c3nc(c(-c4ccc(S(=O)(=O)O)cc4)c4ccc([nH]4)c(-c4ccc(S(=O)(=O)O)cc4)c4nc(c(-c5ccc(S(=O)(=O)O)cc5)c5ccc2[nH]5)C=C4)C=C3)cc1.[Co] [[TBSP—Co], 4,4′,4″,4′″-(porphine-5,10,15,20-tetrayl)tetrakis(benzenesulfonic acid)-Cobalt] | 2.8 | 0.0 | – |
| O=S(=O)(O)c1ccc(-c2c3nc(c(-c4ccc(S(=O)(=O)O)cc4)c4ccc([nH]4)c(-c4ccc(S(=O)(=O)O)cc4)c4nc(c(-c5ccc(S(=O)(=O)O)cc5)c5ccc2[nH]5)C=C4)C=C3)cc1.[Ni] [[TBSP—Ni], 4,4′,4″,4′″-(porphine-5,10,15,20-tetrayl)tetrakis(benzenesulfonic acid)-Nickel] | 1.3 | 0.0 | Adsorption (%) of (ETM) after 10 days [4]: 71.68 ± 2.31%; Desorption (%) of (ETM) after 10 days [4]: 21.22 ± 2.55%; Adsorption (%) of (ETM) after 10 days [5]: 59.44 ± 1.21%; Desorption (%) of (ETM) after 10 days [5]: 40.17 ± 5.51%; Adsorption (%) of (ETM) after 10 days [6]: 95.50 ± 0.44%; Desorption (%) of (ETM) after 10 days [6]: 8.57 ± 1.28% |
| C[n+]1ccc(-c2c3nc(c(-c4cc[n+](C)cc4)c4ccc([n-]4)c(-c4cc[n+](C)cc4)c4nc(c(-c5cc[n+](C)cc5)c5ccc2[n-]5)C=C4)C=C3)cc1.[Co+2] [[TMPyP—Co], tetramethylpyridilporphyrin-Cobalt [5,10,15,20-tetrakis(1-methyl-4-pyridinio)-porphine-Cobalt]] | 1.2 | 0.0 | – |
| C[n+]1ccc(-c2c3nc(c(-c4cc[n+](C)cc4)c4ccc([n-]4)c(-c4cc[n+](C)cc4)c4nc(c(-c5cc[n+](C)cc5)c5ccc2[n-]5)C=C4)C=C3)cc1.[Fe+2] [[TMPyP—Fe], tetramethylpyridilporphyrin-Iron [5,10,15,20-tetrakis(1-methyl-4-pyridinio)-porphine-Iron]] | 40.7 | 66.7 | – |
| C[n+]1ccc(-c2c3nc(c(-c4cc[n+](C)cc4)c4ccc([n-]4)c(-c4cc[n+](C)cc4)c4nc(c(-c5cc[n+](C)cc5)c5ccc2[n-]5)C=C4)C=C3)cc1.[Ni+2] [[TMPyP—Ni], tetramethylpyridilporphyrin-Nickel [5,10,15,20-tetrakis(1-methyl-4-pyridinio)-porphine-Nickel]] | 0.0 | 0.0 | – |
| Oc1ccc(-c2c3nc(c(-c4ccc(O)cc4)c4ccc([n-]4)c(-c4ccc(O)cc4)c4nc(c(-c5ccc(O)cc5)c5ccc2[n-]5)C=C4)C=C3)cc1.[Co+2] [[TP(OH)P—Co], tetrahydroxyphenylporphyrine-Cobalt [5,10,15,20-tetrakis(4-hydroxyphenyl)-21H,23H-porphine-Cobalt]] | 8.3 | 12.3 | – |
| Oc1ccc(-c2c3nc(c(-c4ccc(O)cc4)c4ccc([n-]4)c(-c4ccc(O)cc4)c4nc(c(-c5ccc(O)cc5)c5ccc2[n-]5)C=C4)C=C3)cc1.[Ni+2] [[TP(OH)P—Ni], tetrahydroxyphenylporphyrine-Nickel [5,10,15,20-tetrakis(4-hydroxyphenyl)-21H,23H-porphine-Nickel]] | 8.3 | 9.3 | – |
| hematoporphyrin-Cobalt | 9.4 | 9.7 | Adsorption (%) of (ETM) after 10 days [4]: 12.80 ± 1.2%; Desorption (%) of (ETM) after 10 days [4]: 5.87 ± 0.32%; Adsorption (%) of (ETM) after 10 days [5]: 45.28 ± 1.85%; Desorption (%) of (ETM) after 10 days [5]: 12.65 ± 0.67%; Adsorption (%) of (ETM) after 10 days [6]: 100%; Desorption (%) of (ETM) after 10 days [6]: 0% |

Source: patent US8580711B2, “Decreasing or preventing sub-surface geological matter contamination by agrochemicals” (Yeda Research and Development Co. Ltd., priority 2005, dated 2013)
